Measured values: patent publication US10688105B2, “Method of treating refractory rheumatoid arthritis associated with p53 mutation” (priority 2017, dated 2020)
Blank lines part the entries; values can stand above or below the molecule they belong to.

Key:
RAFLS [1] = experiment: Annexin V flow cytometry cell death in RAFLS; assay type: cell-based; conditions: 24 h; for celastrol-mediated autophagic cell death with inhibitor: 2 μM celastrol with 5 mM 3-MA or 5 μM BAPTA/AM
Description: (§1) Annexin V flow cytometry analysis was applied. Cell death and viability are measured using an Annexin V staining kit (BD Biosciences, San Jose, Calif., USA). Briefly, RAFLS are treated with 0-2 μM celastrol for 24 h. Cells are then harvested and analysed by multiparametric flow cytometry using FITC-Annexin V and Propidium iodide staining (BD Biosciences, San Jose, Calif., USA) according to the manufacturer's instructions. Flow cytometry is then carried out using a FACSCalibur flow cytometer (BD Biosciences, San Jose, Calif., USA). Data acquisition and analysis is performed with CellQuest (BD Biosciences, San Jose, Calif., USA). Data are obtained from three independent experiments.
as §1, with “performed.” for “applied.”, “1 or 2” for “0-2”, “celastrol in the presence or absence of autophagic inhibitor, 3-MA or calcium chelator, BAPTA/AM (BM)” for “celastrol”

RASFs [2] = experiment: Cytosolic Ca2+ dynamic, FLIPR Calcium 6 Assay Kit in RASFs; assay type: cell-based, human; conditions: for celastrol-induced calcium dynamic change under co-/pre-treatment: 1 μM celastrol with 5 μM Compound C or 1 μM thapsigargin; for calcium dynamic change: 1 μM, compound alone
Description: Intracellular cytosolic Ca^2+ dynamic was measured using the FLIPR Calcium 6 Assay Kit (Molecular Devices) according to the manufacturer's instructions. In brief, RASFs were plated at a density of 10000 cells per well in black wall/clear bottom 96-multiwell plates from Costar (Tewksbury, Mass., USA) and cultured for 24 h before treatment. After that, calcium 6 reagent was added directly to cells, and cells were incubated for an additional 2 h at 37° C. and 5% CO2. Indicated concentrations of celastrol or thapsigargin were then added to the wells and immediately subjected to data acquisition on the SpectraMax Paradigm Multi-Mode Microplate Reader (Molecular Devices) at room temperature using a 1-s reading interval throughout the experiments.

RAFLS [3] = experiment: Endogenous LC3-II puncta (autophagy) in RAFLS; assay type: cell-based, human; conditions: 24 h
Description: RAFLS were treated with DMSO as a control group or celastrol at a concentration of 0.25, 0.5, 1 or 2 μM for 24 h.
(§2) Data from the bar chart represented the mean values±S.D. of three independent experiments; error bars, S.D. ***, P<0.001.
(§3) In order to determine endogenous expression of LC3-II, RASFs or RAFLS treated with indicated time and concentrations of celastrol (Cel) were fixed and visualised by fluorescence microscopy after staining with an LC3-II antibody followed by TRITC-conjugated anti-mouse secondary antibody.
To determine the endogenous expression of LC3-II, RAFLS were treated with indicated concentrations of celastrol in the presence or absence of BAPTA/AM (BM) for 24 h. The cells were then fixed and visualised by fluorescence microscopy after staining with an LC3-II antibody followed by TRITC-conjugated anti-mouse secondary antibody.

RASFs [4] = experiment: LC3 conversion Western blot in RASFs; assay type: cell-based, human; conditions: 2 μM celastrol, 10 μM BAPTA/AM
Description: In a detection of autophagic marker protein LC3 conversion, after celastrol treatments with or without the calcium chelator, BAPTA/AM (BM), RASFs were harvested and lysed in RIPA buffer (Cell Signaling Technologies Inc. (Beverly, Mass.). The cell lysates were then resolved by SDS-PAGE. After electrophoresis, the proteins from SDS-PAGE were transferred to nitrocellulose membrane which was then blocked with 5% non-fat dried milk for 60 minutes. The membrane was then incubated with LC3 primary antibodies (1:1000) in TBST overnight at 4° C. After that, the membrane was further incubated with HRP-conjugated secondary antibodies for 60 minutes. Finally, protein bands were visualized by using the ECL Western Blotting Detection Reagents (Invitrogen, Paisley, Scotland, UK).

[5] = system: adjuvant-induced arthritis (AIA) rat model; experiment: Adjuvant-induced arthritis (AIA) rat model; conditions: AIA rats; for microCT of hind joints: swollen joints and cartilage destruction: left hind paw
RAFLS p53 WT = experiment: MTT cytotoxicity assay, RAFLS Ctrl p53 WT; assay type: cell-based, human
Description: (§4) Cytotoxicity Assays were performed. […] Data were obtained from triplication independent experiments.

RAFLS p53 N239S = experiment: MTT cytotoxicity assay, RAFLS transfected with p53 mutant N239S; assay type: cell-based, human
Description: as §4

RAFLS p53 R213* = experiment: MTT cytotoxicity assay, RAFLS transfected with p53 mutant R213*; assay type: cell-based, human
Description: as §4

[6] = MTT cytotoxicity assay, RAFLS; assay type: cell-based; conditions: human
Description: Data were obtained from triplication independent experiments.

P-gp ATPase = target: T1, P-gp ATPase (Homo sapiens, UniProt P08183); experiment: Pgp-Glo assay of P-gp ATPase activity; assay type: biochemical; conditions: celastrol 0.5, 1, 2 μM with 200 μM verapamil and ATP, 1 hour, 37° C.
T1 construct: purchased Promega, Madison, Wis
T1 sequence (P08183 whole entry): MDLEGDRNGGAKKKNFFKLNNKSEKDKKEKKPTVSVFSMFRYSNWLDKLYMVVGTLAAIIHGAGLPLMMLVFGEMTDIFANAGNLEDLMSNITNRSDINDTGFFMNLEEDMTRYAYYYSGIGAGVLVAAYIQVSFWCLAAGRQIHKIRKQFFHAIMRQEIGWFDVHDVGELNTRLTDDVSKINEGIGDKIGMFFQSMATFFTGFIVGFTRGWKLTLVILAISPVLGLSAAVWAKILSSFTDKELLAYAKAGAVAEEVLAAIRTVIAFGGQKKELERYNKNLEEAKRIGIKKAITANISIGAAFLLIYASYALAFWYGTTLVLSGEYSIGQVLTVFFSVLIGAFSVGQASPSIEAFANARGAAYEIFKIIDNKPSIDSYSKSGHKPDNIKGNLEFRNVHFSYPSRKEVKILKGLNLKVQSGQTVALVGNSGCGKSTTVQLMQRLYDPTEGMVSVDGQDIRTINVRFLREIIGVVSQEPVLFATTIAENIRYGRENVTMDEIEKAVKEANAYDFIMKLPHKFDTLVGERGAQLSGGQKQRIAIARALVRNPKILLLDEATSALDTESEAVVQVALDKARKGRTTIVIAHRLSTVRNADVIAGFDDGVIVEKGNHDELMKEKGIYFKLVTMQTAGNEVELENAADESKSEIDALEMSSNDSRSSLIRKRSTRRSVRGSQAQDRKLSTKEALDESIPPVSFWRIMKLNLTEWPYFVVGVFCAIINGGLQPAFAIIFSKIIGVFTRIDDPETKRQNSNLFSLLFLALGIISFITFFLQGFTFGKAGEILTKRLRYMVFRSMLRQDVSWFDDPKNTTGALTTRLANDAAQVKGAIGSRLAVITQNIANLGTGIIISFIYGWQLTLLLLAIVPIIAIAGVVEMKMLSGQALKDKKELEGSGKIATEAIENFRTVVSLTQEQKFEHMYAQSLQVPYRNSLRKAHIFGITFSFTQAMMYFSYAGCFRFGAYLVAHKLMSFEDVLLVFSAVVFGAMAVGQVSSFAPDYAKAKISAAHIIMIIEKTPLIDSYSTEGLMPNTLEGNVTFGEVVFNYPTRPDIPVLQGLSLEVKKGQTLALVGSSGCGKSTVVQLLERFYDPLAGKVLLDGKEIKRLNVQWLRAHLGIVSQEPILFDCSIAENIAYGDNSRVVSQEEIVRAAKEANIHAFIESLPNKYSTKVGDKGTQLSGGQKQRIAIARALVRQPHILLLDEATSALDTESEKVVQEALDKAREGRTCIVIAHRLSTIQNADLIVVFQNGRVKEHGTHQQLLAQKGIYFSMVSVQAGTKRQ
Description: The luminescence was then measured by P-gp Glo™ Assay System. Change in luminescence (RLU) represented the activity of P-gp, whereas the activity shown in the control group indicated the basal P-gp ATPase activity.
The luminescence of the sample reflects the ATP level in the sample, which is negatively correlated with the activity of P-gp ATPase and was recorded using the SpectraMax Paradigm Multi-Mode Microplate Reader (Molecular Devices). DMSO-treated activities are expressed as the percentage of basal activity. By comparing basal activity to test compound-treated activities, the compounds can be ranked as stimulating, inhibiting, or having no effect on basal P-gp ATPase activity.

P-gp = experiment: Rho123 exclusion assay in P-gp overexpressing RAFLS; assay type: cell-based, human; conditions: relatively low doses of celastrol
Description: At the end of the incubation, the accumulation of Rho123 was stopped by washing the cells five times with ice-cold PBS. After cell centrifugation, cell pellets were resuspended in 400 μL PBS. […] All data acquisition and analyses were performed with CellQuest (BD Biosciences, San Jose, Calif., USA) in triplicate in three independent experiments, and the results were shown as the mean of fluorescence intensity.

RASFs [7] = experiment: Endogenous LC3-II puncta (autophagy) in RASFs; assay type: cell-based, human; conditions: 1 μM, 10-240 min
Description: RASFs were treated with DMSO as a control group or 1 μM celastrol for 10, 30, 60 or 240 min. The cells were then fixed and visualized for endogenous LC3-II expression by fluorescence microscopy using LC3-II antibody plus TRITC-conjugated anti-mouse secondary antibody.
as §2, §3

RAFLS [8] = experiment: Cytosolic calcium level by Fluo-3 flow cytometry in RAFLS; assay type: cell-based, human; conditions: 1 μM 0-24 h, 0.1-2 μM 4 h
Description: Flow cytometry analysis was performed to determine the cytosolic calcium level. Intracellular free calcium was measured by a fluorescent dye, Fluo-3. Briefly, RAFLS were washed twice with DMEM media after Celastrol treatment (1 μM) for 4 h. Then cell suspensions were incubated with 5 μM Fluo-3 at 37° C. for 30 min. Then the cells were washed twice with HBSS. After re-suspended cell samples were subjected to FACS analysis. At least 10,000 events were analyzed.

[9] = system: P-gp-over-expressing RAFLS; experiment: Annexin V flow cytometry, celastrol with methotrexate in RAFLS; assay type: cell-based, human; conditions: celastrol 0.1-0.2 μM with 450 μM MTX, 24 h
Description: Celastrol-induced cell death was measured by flow cytometry analysis after annexin V staining.
as §1, with “performed.” for “applied.”, “Briefly, RAFLS are treated with 0-2 μM celastrol for 24 h.” left out

in vitro = conditions: human
Description: (§5) All test compounds were dissolved in DMSO at final concentrations of 50 mmol/L and stored at −20° C. before use. Cytotoxicity was assessed using the 3-(4, 5-dimethylthiazol-2-yl)-2, 5-diphenyltetrazolium bromide (MTT) (5.0 mg/ml) assay. Briefly, 4×10^3 RAFLS cells overexpressed with P-gp were seeded per well in 96-well plates before drug treatment. […] Cells without drug treatment were used as control. Subsequently, MTT (10 μL) was added to each well and incubated at 37° C. for 4 hours followed by the addition of 100 μL solubilization buffer (10% SDS in 0.01 mol/L HCl) and overnight incubation. A570 nm was determined from each well on the next day. The percentage of cell viability was calculated using the following formula: Cell viability (%)=Atreated/Acontrol×100. Data were obtained from triplication independent experiments.

[10] = system: RAFLS p-gp over expression; experiment: MTT cytotoxicity assay, RAFLS overexpressed with P-gp; conditions: RAFLS p-gp over expression vs RAFLS
Description: as §5

[11] = Homo sapiens, RA-FLS, 72 h, read-out: mean IC50
[12] = celastrol 1 and 2 mg/kg i.p., 36 days, vs vehicle-treated
[13] = RAFLS cells overexpressing P-gp

Compound: Cn1cnc(N)c2ncnc1-2 [3-MA, 3-methyladenine]
celastrol-mediated autophagic cell death with inhibitor (RAFLS [1]): completely abolished

Compound: c1cc(-c2cnn3cc(-c4ccc(OCCN5CCCCC5)cc4)cnc23)ccn1 [AMPK inhibitor]
celastrol-induced calcium dynamic change under co-/pre-treatment (RASFs [2]): no inhibitory effect

Compound: CC(=O)OCOC(=O)CN(CC(=O)OCOC(C)=O)c1ccccc1OCCOc1ccccc1N(CC(=O)OCOC(C)=O)CC(=O)OCOC(C)=O [BAPTA/AM, reference compound]
celastrol-induced endogenous LC3-II puncta formation with co-treatment (RAFLS [3]; 1 μM celastrol, 10 μM BAPTA/AM): dramatically suppressed
celastrol-mediated autophagic cell death with inhibitor (RAFLS [1]): completely abolished
LC3-II conversion with co-treatment (RASFs [4]): inhibited LC3-II conversion
anti-arthritic effect of celastrol with calcium chelator ([5]; celastrol 1 mg/kg + BAPTA/AM 3.5 mg/kg): retarded the anti-arthritic effect of celastrol

Compound: CC1=C(O)C(=O)C=C2C1=CC=C1[C@@]2(C)CC[C@@]2(C)[C@@H]3C[C@](C)(C(=O)O)CC[C@]3(C)CC[C@]12C [Celastrol, celastrol]
IC50 (RAFLS p53 WT; [11]): 996 nM
Resistant factor, RF (RAFLS p53 WT; RAFLS Ctrl p53 WT (reference)): RF: 1
IC50 (RAFLS p53 N239S; [11]): 1010 nM
Resistant factor, RF (RAFLS p53 N239S; RAFLS p53 N239S vs p53 WT): RF: 1.01
IC50 (RAFLS p53 R213*; [11]): 722 nM
Resistant factor, RF (RAFLS p53 R213*; RAFLS p53 R213* vs p53 WT): RF: 0.72
IC50 at 72 h [6]: 1.3 µM
verapamil-activated P-gp activity (P-gp ATPase): directly suppresses the activated form of P-gp in dose-dependently manner
Rho123 accumulation in P-gp overexpressing RAFLS (P-gp): gradually increased Rho123 accumulation in a dose-dependent manner
autophagy induction, endogenous LC3-II puncta (RASFs [7]): induced autophagy in time-dependent manner
autophagy induction, endogenous LC3-II puncta (RAFLS [3]; 0.25-2 μM): dose-dependent autophagy induction
cell death (cytotoxicity), annexin V (RAFLS [1]; 0.25-2 μM): dose-dependent cytotoxicity
calcium mobilization (Fluo-3) (RAFLS [8]): time and dose-dependently disturbs calcium homeostasis
calcium dynamic change (RASFs [2]): stimulated relative weak calcium dynamic
MTX-mediated cell death (sensitization) [9]: potentiating the toxicity of MTX
IC50 at 72 h (in vitro): 1.45 µM
erythrocyte sedimentation rate (ESR) [5]: down-regulated
body weight or organ weight ([5]; 36 days): without impairment
arthritic scores [5, 12]: significantly reduced
hind paw volume [5, 12]: significantly reduced
microCT of hind joints: swollen joints and cartilage destruction [5]: markedly improved
Resistant Factor [10]: 1.12

Compound: COc1cc2c(c(OC)c1OC)-c1ccc(OC)c(=O)cc1[C@@H](NC(C)=O)CC2 [Colchicine, colchicine]
IC50 at 72 h [6]: 11.3 µM
IC50 at 72 h (in vitro): 46 µM
Resistant Factor [10]: 4.07

IC50 at 72 h (in vitro; [13]): > 2000 µM
Compound: C[C@@H]1C[C@H]2[C@@H]3CCC4=CC(=O)C=C[C@]4(C)[C@@]3(F)[C@@H](O)C[C@]2(C)[C@@]1(O)C(=O)CO [Dexamethasone, dexamethasone]
IC50 at 72 h ([6]; RAFLS cells): 600 µM

Compound: CN(Cc1cnc2nc(N)nc(N)c2n1)c1ccc(C(=O)N[C@@H](CCC(=O)O)C(=O)O)cc1 [Methotrexate, methotrexate]
IC50 at 72 h ([6]; RAFLS cells): 219 µM
IC50 at 72 h (in vitro; [13]): 838 µM
erythrocyte sedimentation rate (ESR) [5]: down-regulated
microCT of hind joints: swollen joints and cartilage destruction [5]: markedly improved
Resistant Factor [10]: 3.83

IC50 at 72 h (in vitro; [13]): 216 µM
Compound: C[C@]12C=CC(=O)C=C1CC[C@@H]1[C@@H]2[C@@H](O)C[C@@]2(C)[C@H]1CC[C@]2(O)C(=O)CO [Prednisolone, prednisolone]
IC50 at 72 h ([6]; RAFLS cells): 123 µM

Compound: C/C=C(/C)C(=O)O[C@H]1C(C)=C2[C@H]([C@@H]1OC(=O)CCCCCCC)[C@@](C)(OC(C)=O)C[C@H](OC(=O)CCC)[C@@]1(O)[C@H]2OC(=O)[C@@]1(C)O [thapsigargin]
celastrol-induced calcium dynamic change under co-/pre-treatment (RASFs [2]): extremely low response in calcium mobilization upon celastrol treatment
calcium dynamic change (RASFs [2]): significantly induced the calcium dynamic change
